Structures can show the parent of a compound that is named as a salt. Where two headings read alike, the source gives them in different places.
Key:
SUDHL10 cells [1] = experiment: Induction of cytotoxicity (CellTiter-Glo, 5 h), SUDHL10; details: SUDHL10, 5 h
SUDHL10 cells [2] = experiment: Induction of caspase-3/7 activity (Caspase-Glo 3/7), SUDHL10; assay type: cell-based; details: EC50, median, SUDHL10, 3 h treatment
Summary of the method: (§1)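 Caspase-3/7 activation serves as the apoptosis read-out for MCL-1 inhibition. Cells are treated with compound for 3 h at 37 °C and assayed with Caspase-Glo 3/7; values are corrected by subtracting medium-only background.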

SUDHL5 cells [3] = experiment: Induction of cytotoxicity (CellTiter-Glo, 5 h), SUDHL5; details: SUDHL5, 5 h
AMO-1 cells = experiment: Antiproliferation assay (CellTiter-Glo, 72 h), AMO-1; assay type: cell-based; details: IC50, median, AMO-1, 72 h, read-out: Antiproli AMO-1 [M] median
Summary of the method: (§2)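 Cells plated in treatment plates plus a day 0 reference plate; incubated 72 h at 37 °C; CellTiter-Glo added, 10 min incubation, luminescence read; day 0 plate read at time zero.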

SNU-389 cells = experiment: Antiproliferation assay (CellTiter-Glo, 72 h), SNU-389; assay type: cell-based; details: IC50, median; SNU-389, 72 h; read-out: Antiproli SNU-389 [M] median
Procedure: (§3) Assessment of the Anti-Proliferative Effect of Compounds in Different Cell Lines
(§4) The impact of compounds on the proliferation of different cell lines was assessed using the CellTiter-Glo® Luminescent Cell Viability reagent from Promega (G7573).
(§5) In parallel, cells were plated in a reference (day 0) plate for time zero determination.
(§6) Rim wells were excluded. The cells were incubated for 72 h hours in a humidified incubator at 37° C. The day 0 plate was measured by adding 30 μL/well of CTG solution (CellTiter-Glo® Luminescent Cell Viability reagent, Promega G7573) to time zero wells in the reference plate followed by a 10 minutes incubation and luminescence reading at 0.1 ms. using the PHERAstar FS microplate reader (BMG Labtech).
(§7) After 72 h incubation, the treated plates were measured in the same way as the day 0 plate mentioned above.

T47D cells = experiment: Antiproliferation assay (CellTiter-Glo, 72 h), T47D; assay type: cell-based; details: IC50, median, T47D (head printed T4713), read-out: Antiproli T4713 [M] median
Procedure: as §3, §4, §5, §6, §7

SUDHL5 cells [4] = experiment: Antiproliferation assay (CellTiter-Glo, 72 h), SUDHL5; assay type: cell-based; details: IC50, median, SUDHL5, 72 h, read-out: Antiproli SUDHL5 [M] (median)
Summary of the method: as §2

A2058 cells = experiment: Antiproliferation assay (CellTiter-Glo, 72 h), A2058; assay type: cell-based; details: A2058, 72 h, read-out: Antiproli A2058 [M] median
Procedure: as §3, §4, §5, §6, §7

MV-4-11 cells = experiment: Antiproliferation assay (CellTiter-Glo, 72 h), MV-4-11; assay type: cell-based; details: IC50, median, MV-4-11, 72 h, read-out: Antiproli MV-4-11 [M] median
Procedure: as §3, §4, §5, §6, §7

DMS-114 cells = experiment: Antiproliferation assay (CellTiter-Glo, 72 h), DMS-114; assay type: cell-based; details: IC50, median; DMS-114, 72 h; read-out: Antiproli DMS-114 [M] median
Procedure: as §3, §4, §5, §6, §7

SUDHL5 cells [5] = experiment: Induction of caspase-3/7 activity (Caspase-Glo 3/7), SUDHL5; assay type: cell-based; details: EC50, median, SUDHL5, 3 h treatment
Summary of the method: as §1

SUDHL10 cells [6] = experiment: Antiproliferation assay (CellTiter-Glo, 72 h), SUDHL10; assay type: cell-based; details: IC50, median, SUDHL10, 72 h, read-out: Antiproli SUDHL10 [M] (median)
Procedure: as §3, §4, §5, §6, §7

HMC-1-8 cells = experiment: Antiproliferation assay (CellTiter-Glo, 72 h), HMC-1-8; assay type: cell-based; details: IC50, median, HMC-1-8, 72 h, read-out: Antiproli HMC-1-8 [M] median
Summary of the method: as §2

SK-BR-3 cells = experiment: Antiproliferation assay (CellTiter-Glo, 72 h), SK-BR-3; assay type: cell-based; details: IC50, median, SK-BR-3, 72 h, read-out: Antiproli SK-BR-3 [M] median
Procedure: as §3, §4, §5, §6, §7

NCI-H23 cells = experiment: Antiproliferation assay (CellTiter-Glo, 72 h), NCI-H23; assay type: cell-based; details: NCI-H23, 72 h, read-out: Antiproli NCI-H23 [M] median
Procedure: as §3, §4, §5, §6, §7

[7] = read-out: Cytotox SUDHL10 [M] (median), IC50, median
[8] = read-out: Cytotox SUDHL5 [M] (median), IC50, median
[9] = Homo sapiens, SU-DHL10, 5 h, read-out: Cytotox SUDHL10 [M] (median), IC50, median

`Cc1c2c(nn1C)COCCCCn1c(C(=O)O)c(CCCOc3cccc4cc(F)ccc34)c3ccc(Cl)c-2c31` (single isomer, unassigned; enantiomer 1) [Example 15, (+)-4-chloro-7-{3-[(6-fluoronaphthalen-1-yl)oxy]propyl}-2,3-dimethyl-2,10,11,12,13,15-hexahydropyrazolo[4′,3′:9,10][1,6]oxazacycloundecino[8,7,6-hi]indole-8-carboxylic acid-N-ethylethanamine salt (Enantiomer 1)] was tested, and the IC50 (SUDHL10 cells [1]; [7]) was 2.3e-07 M, the EC50 (SUDHL10 cells [2]) was 150 nM and the IC50 (SUDHL5 cells [3]; [8]) was 1.4e-07 M. The IC50 (AMO-1 cells) was 5.3e-07 M, the IC50 (SNU-389 cells) was 9.28e-07 M and the IC50 (T47D cells) was 1.19e-05 M. For the same compound, the IC50 (SUDHL5 cells [4]) was 1.9e-07 M, the IC50 (A2058 cells; IC50, median) was 5.86e-06 M and the IC50 (MV-4-11 cells) was 4.61e-07 M. For the same compound, the IC50 (DMS-114 cells) was 6.42e-07 M, the EC50 (SUDHL5 cells [5]) was 120 nM and the IC50 (SUDHL10 cells [6]) was 2e-07 M. For the same compound, the IC50 (HMC-1-8 cells) was 1.4e-06 M.
In the case of `CCc1nn(CCN2CCOCC2)c2c1-c1c(Cl)ccc3c(CCCOc4cccc5ccccc45)c(C(=O)O)n(c13)CCCCOC2` (single isomer, unassigned; enantiomer 1) [Example 9, 4-chloro-3-ethyl-1-[2-(morpholin-4-yl)ethyl]-7-[3-(naphthalen-1-yloxy)propyl]-1,10,11,12,13,15-hexahydropyrazolo[4′,3′:9,10][1,6]oxazacycloundecino[8,7,6-hi]indole-8-carboxylic acid-N-ethylethanamine salt (Enantiomer 1)], the IC50 (SUDHL10 cells [1]; [7]) is reported as 3.4e-07 M, the IC50 (SK-BR-3 cells) is reported as 1.08e-06 M and the EC50 (SUDHL10 cells [2]) is reported as 330 nM. For the same compound, the IC50 (SUDHL5 cells [3]; [8]) was 2.9e-07 M, the IC50 (AMO-1 cells) was 8.7e-07 M and the IC50 (SUDHL5 cells [4]) was 3.7e-07 M. It also gave an IC50 (MV-4-11 cells) of 8.23e-07 M, an EC50 (SUDHL5 cells [5]) of 270 nM and an IC50 (SUDHL10 cells [6]; Homo sapiens, SU-DHL10, 72 h) of 2.7e-07 M.
For `CCc1nn(CCN2CCOCC2)c2c1-c1c(Cl)ccc3c(CCCOc4cccc5ccccc45)c(C(=O)O)n(c13)CCCCOC2` (racemic) [Example 8, (rac)-4-chloro-3-ethyl-1-[2-(morpholin-4-yl)ethyl]-7-[3-(naphthalen-1-yloxy)propyl]-1,10,11,12,13,15-hexahydropyrazolo[4′,3′:9,10][1,6]oxazacycloundecino[8,7,6-hi]indole-8-carboxylic acid], the IC50 (SUDHL10 cells [1]; [9]) was 4.5e-07 M, the IC50 (SK-BR-3 cells) was 3e-06 M and the EC50 (SUDHL10 cells [2]; Homo sapiens, SU-DHL10, 3 h) was 360 nM. For the same compound, the IC50 (SUDHL5 cells [3]; [8]) was 3.5e-07 M, the IC50 (SUDHL5 cells [4]) was 4.7e-07 M and the IC50 (MV-4-11 cells) was 1.1e-06 M. For the same compound, the EC50 (SUDHL5 cells [5]) was 290 nM.
Compound `Cc1c2c(nn1C)COCCCCn1c(C(=O)O)c(CCCOc3cccc4ccccc34)c3ccc(Cl)c-2c31` (single isomer, unassigned; enantiomer 1) [Example 26, 4-chloro-2,3-dimethyl-7-[3-(naphthalen-1-yloxy)propyl]-2,10,11,12,13,15-hexahydropyrazolo-[4′,3′:9,10][1,6]oxazacycloundecino[8,7,6-hi]indole-8-carboxylic acid-N-ethylethanamine salt (Enantiomer 1)] has an IC50 (SUDHL10 cells [1]; [7]) of 5e-07 M, an IC50 (SK-BR-3 cells) of 3.3e-06 M and an EC50 (SUDHL10 cells [2]) of 410 nM. The IC50 (SUDHL5 cells [3]; [8]) was 4.6e-07 M, the IC50 (AMO-1 cells) was 1e-06 M and the IC50 (SNU-389 cells) was 1.66e-06 M. For the same compound, the IC50 (SUDHL5 cells [4]) was 5.8e-07 M, the IC50 (A2058 cells; IC50, median) was 1.49e-05 M and the IC50 (MV-4-11 cells) was 1.81e-06 M. The IC50 (DMS-114 cells) was 1.76e-06 M, the IC50 (NCI-H23 cells; IC50, median) was 2.32e-06 M and the EC50 (SUDHL5 cells [5]) was 250 nM. The IC50 (HMC-1-8 cells) was 2.9e-06 M.
With `Cc1c2c(nn1C)COCCCCn1c(C(=O)O)c(CCCOc3cccc4ccccc34)c3ccc(Cl)c-2c31` (racemic) [Example 25, (rac)-4-chloro-2,3-dimethyl-7-[3-(naphthalen-1-yloxy)propyl]-2,10,11,12,13,15-hexahydropyrazolo[4′,3′:9,10][1,6]oxazacycloundecino[8,7,6-hi]indole-8-carboxylic acid] the IC50 (SUDHL10 cells [1]; [9]) was 9.3e-07 M, the IC50 (SK-BR-3 cells; Homo sapiens) was 1.29e-05 M and the EC50 (SUDHL10 cells [2]; Homo sapiens, SU-DHL10, 3 h) was 1200 nM. For the same compound, the IC50 (SUDHL5 cells [3]; Homo sapiens, SU-DHL-5, 5 h, read-out: Cytotox SUDHL5 [M] (median), IC50, median) was 5.3e-07 M, the IC50 (AMO-1 cells; Homo sapiens, AMO1, 72 h) was 1.3e-06 M and the IC50 (SUDHL5 cells [4]; Homo sapiens, SU-DHL-5, 72 h) was 5.6e-07 M. It also gave an IC50 (A2058 cells; Homo sapiens) of 2.19e-05 M, an IC50 (MV-4-11 cells; Homo sapiens, MV4-11, 72 h) of 2.78e-06 M and an IC50 (NCI-H23 cells; Homo sapiens) of 6.01e-06 M. It also gave an EC50 (SUDHL5 cells [5]; Homo sapiens, SU-DHL-5, 3 h) of 390 nM and an IC50 (HMC-1-8 cells; 72 h) of 6.5e-06 M.

Source: patent US11478451B1, “Macrocyclic chlorine substituted indole derivatives” (Bayer Aktiengesellschaft, priority 2017, dated 2022)
